In US12275850B2, “Organic-inorganic hybrid material comprising a metal and lignin, processes for preparing the same and uses thereof” (UPM-KYMMENE CORPORATION, priority 2018, dated 2025):

What was measured:
Assay in all cases: MIC, agar dilution / broth microdilution
Format in all cases: cell-based
Conditions in all cases: mainly agar dilution; g/l of material; for Copper MIC refers to concentration of copper
Campylobacter jejuni = tested on: Campylobacter jejuni
Experimental: (§1) The antimicrobial activity of organic-inorganic hybrid materials of the present invention was evaluated through in vitro test of antimicrobial susceptibility with broth microdilution method and agar dilution method (CLSI protocol—Clinical and Laboratory Standards Institute). […] Agar dilution assay was used: the organic-inorganic hybrid materials were incorporated at different concentrations into the agar medium (specific for each microorganism) and after solidification of the medium, the inoculum (10^4 CFU/ml for the fungi and […] for the bacteria) was applied to the agar surface. Broth microdilution assay: the organic-inorganic hybrid materials were diluted into specific liquid media in the presence of a well-defined microbial suspension (10^4 CFU/ml for the fungi and […] for the bacteria). In the broth microdilution assay, the organic-inorganic hybrid materials were diluted into specific liquid media, but they resulted insoluble with the formation of precipitates on the bottom of the wells, consequently the MIC were mainly determinate with agar dilution assay. Two controls were prepared for the tests: a positive control of activity through use of Miconazole (against fungi) and Ceftriaxone (against bacteria). All the tests have been carried out in triplicate, giving very similar inhibition results. In parenthesis, the concentration (g/l) of copper relative to the corresponding copper-lignin derivative. For copper sulphate pentahydrate (copper) and copper hydroxide (copper 2) the MIC refer to the concentration of copper (g/l): […]

Escherichia coli = tested on: Escherichia coli
Experimental: as §1

Fusarium solani = tested on: Fusarium solani
Experimental: as §1

Staphylococcus aureus = tested on: Staphylococcus aureus
Experimental: as §1

Erwinia amylovora = tested on: Erwinia amylovora
Experimental: as §1

[1] = tested on: Xanthomonas arboricola pv. pruni
Experimental: as §1

Candida albicans = tested on: Candida albicans
Experimental: as §1

Rizoctonia solani = tested on: Rizoctonia solani
Experimental: as §1

Alternaria solani = tested on: Alternaria solani
Experimental: as §1

Septoria tritici = tested on: Septoria tritici
Experimental: as §1

Monilia laxa = tested on: Monilia laxa
Experimental: as §1

[2] = tested on: Pseudomonas syringae pv. actinidiae
Experimental: as §1

Pseudomonas aeruginosa = tested on: Pseudomonas aeruginosa
Experimental: as §1

Xanthomonas campestris = tested on: Xanthomonas campestris
Experimental: as §1

Botritis cinerea = tested on: Botritis cinerea
Experimental: as §1

Salmonella enteriditis = tested on: Salmonella enteriditis
Experimental: as §1

`[Cu+2].[OH-].[OH-]` [Copper, Copper hydroxide] was tested, and the “MIC (g/l) C. jejuni” value (Campylobacter jejuni) was under 0.16 g/L, the “MIC (g/l) E. coli” value (Escherichia coli) was 0.32 g/L and the “MIC (g/l) F. solani” value (Fusarium solani) was 10.4 g/L. The “MIC (g/l) S. aureus” value (Staphylococcus aureus) was 0.32 g/L, the “MIC (g/l) E. amylovora” value (Erwinia amylovora) was 0.65 g/L and the “MIC (g/l) X. arboricola” value [1] was under 0.16 g/L. For the same compound, the “MIC (g/l) C. albicans” value (Candida albicans) was 1.30 g/L, the “MIC (g/l) R. solani” value (Rizoctonia solani) was 0.32 g/L and the “MIC (g/l) A. solani” value (Alternaria solani) was 5.2 g/L. The “MIC (g/l) S. tritici” value (Septoria tritici) was 0.65 g/L, the “MIC (g/l) M. laxa” value (Monilia laxa) was 0.65 g/L and the “MIC (g/l) P. syringae” value [2] was 0.32 g/L. The “MIC (g/l) P. aeruginosa” value (Pseudomonas aeruginosa) was 1.30 g/L, the “MIC (g/l) X. campestris” value (Xanthomonas campestris) was 0.32 g/L and the “MIC (g/l) B. cinerea” value (Botritis cinerea) was 5.2 g/L. The “MIC (g/l) S. enteridis” value (Salmonella enteriditis) was 0.65 g/L.
